Assay results: PubChem BioAssay (NCI)
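Compound exposure: 48 hours, 5 concentrations, 96-well plates. At the GI50, growth is halved. TGI marks complete inhibition of growth.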

Legend:
Test in all cases: growth of human tumour cells (NCI), 48 h
[1] = system: A498 renal
[2] = system: K-562 leukemia
[3] = system: KM12 colon
[4] = system: MDA-N
[5] = system: MOLT-4 leukemia
[6] = system: OVCAR-4 ovarian
[7] = system: SK-MEL-28 melanoma
[8] = system: UACC-257 melanoma
[9] = system: EKVX NSCLC
[10] = system: SF-268 CNS

| Structure (SMILES) | TGI [1] | TGI [2] | TGI [3] | TGI [4] | TGI [5] | TGI [6] | TGI [7] | TGI [8] | TGI [9] | TGI [10] | GI50 [1] | GI50 [9] | GI50 [3] | GI50 [6] | GI50 [10] | GI50 [7] | GI50 [8] | GI50 [2] | GI50 [5] |
| --- | --- | --- | --- | --- | --- | --- | --- | --- | --- | --- | --- | --- | --- | --- | --- | --- | --- | --- | --- |
| OCC1NC(CO)C(O)C1O (stereo not given) | > 100 µM | > 100 µM | > 100 µM | > 100 µM | > 100 µM | > 100 µM | > 100 µM | > 100 µM |  |  |  |  |  |  |  |  |  |  |  |
| C=C(CN(C)C)C(=O)c1ccccc1 | 41.7 µM | 14.3 µM | 42.2 µM | 28.1 µM | 15.3 µM | 39.3 µM | 34.8 µM | 27.6 µM | 46.3 µM | > 58.2 µM |  |  |  |  |  |  |  |  |  |
| O=S1(=O)C[C@H](NCc2ccccc2)[C@H](NCc2ccccc2)C1 |  | > 100 µM | > 100 µM | > 100 µM | > 100 µM | > 100 µM | > 100 µM | > 100 µM | > 100 µM | > 100 µM |  |  |  |  |  |  |  |  |  |
| CCOP(=O)(OCC)C(Cc1c[nH]c2ccccc12)C(=O)O (stereo not given) | > 100 µM | > 100 µM |  | > 100 µM | > 100 µM | > 100 µM | > 100 µM | > 100 µM |  |  |  |  |  |  |  |  |  |  |  |
| C[n+]1c(-c2ccc(/C=N\Nc3ccnc(N/N=C/c4ccc(-c5cn6ccsc6[n+]5C)cc4)n3)cc2)cn2ccsc21 | 54.8 µM | > 100 µM | 84.5 µM | 26.7 µM | > 100 µM | > 100 µM |  | 43.9 µM | 50 µM |  |  |  |  |  |  |  |  |  |  |
| COc1ccc(CCn2ccc(C)n2)c(OC)c1 |  | > 100 µM | > 100 µM | > 100 µM | > 100 µM | > 100 µM | > 100 µM | > 100 µM | > 100 µM | > 100 µM |  |  |  |  |  |  |  |  |  |
| Nc1ccc(C2(c3ccc(N)cc3)C3CC4CC(C3)CC2C4)cc1 | 41.3 µM | 47.4 µM | 25.3 µM | 37.6 µM | 28.2 µM | 32.5 µM | > 100 µM | 36.2 µM | 32 µM | 27.3 µM |  |  |  |  |  |  |  |  |  |
| CC(C)N(CCNc1nc(C(Cl)(Cl)Cl)nc2cc(Cl)ccc12)C(C)C | 2.66 µM |  | 2.83 µM |  |  | 2.96 µM | 3.38 µM | 3.49 µM | 4.32 µM | 4.44 µM | 1270 nM | 1570 nM | 1320 nM | 1350 nM | 1970 nM | 1800 nM | 1930 nM |  |  |
| Nc1nc(N)c(N=Nc2ccccc2)c(=O)[nH]1 | > 100 µM | > 100 µM | > 100 µM |  | > 100 µM | > 100 µM | 87.7 µM | > 100 µM |  | > 100 µM |  |  |  |  |  |  |  |  |  |
| Cc1ccc(S(=O)(=O)NCCCSCCN)cc1 | > 100 µM | > 100 µM | > 100 µM | > 100 µM | > 100 µM | > 100 µM | > 100 µM | > 100 µM |  | > 100 µM |  |  |  |  |  |  |  |  |  |
| CC(=O)OC/C=C\Cn1ncc(=O)[nH]c1=O | 31.9 µM | 54.9 µM | 31.3 µM | 31.8 µM | 44 µM |  | 50.2 µM |  | 38.8 µM | 36.7 µM |  |  |  |  |  |  |  |  |  |
| CC=C/C=C/[C@@H]1O[C@](O)([C@H](CC)C(=O)NC/C=C/C=C(\C)[C@@H](OC)[C@@H](C)[C@@H]2O[C@H](/C=C/C=C/C=C(\C)C(=O)c3c(O)cc[nH]c3=O)[C@H](O)[C@@H]2O)[C@H](O)[C@H](O)C1(C)C | > 100 µM | > 100 µM | > 100 µM |  | > 100 µM | > 100 µM | > 100 µM | > 100 µM | > 100 µM | > 100 µM |  |  |  |  |  |  |  |  |  |
| COc1ccc(/C=C/c2cc(O)cc(OC3OC(CO)C(O)C(O)C3O)c2)cc1O (stereo not given) | > 100 µM | > 100 µM | 86.5 µM | > 100 µM | > 100 µM | > 100 µM | > 100 µM | > 100 µM | > 100 µM | > 100 µM |  |  |  |  |  |  |  |  |  |
| CC(O)C1(O)C(O)CC(OC2c3cc4c(c(O)c3[C@@H]3C[C@@]2(C)OC32C=c3cc[nH]c3=N2)C(=O)c2cccc(O)c2C4=O)OC1C (stereo not given in full) | 2.75 µM | 4.78 µM | 3.77 µM | 3.41 µM | 2.67 µM | 7.2 µM | 3.78 µM | 3.12 µM | 3.6 µM | 4.38 µM |  |  |  |  |  |  |  |  |  |
| O=C(Nc1ccc(C(F)(F)F)cc1[N+](=O)[O-])C(=O)Nn1c(=S)[nH]c2ccccc2c1=O | > 100 µM | > 100 µM | > 100 µM |  | > 100 µM | > 100 µM | > 100 µM | > 100 µM | > 100 µM | > 100 µM |  |  |  |  |  |  |  |  |  |
| O=Nn1c2ccccc2c2ccccc21 | 75.7 µM | > 100 µM | > 100 µM |  | > 100 µM | > 100 µM | > 100 µM | > 100 µM | > 100 µM | > 100 µM |  |  |  |  |  |  |  |  |  |
| CCOC(=O)CCCc1cc(=O)c2c(C)c3[nH]c4ccc(Cl)cc4c3c(C)c2[nH]1 | 36.5 µM | 79.6 µM | > 100 µM | > 100 µM | > 100 µM | 59.1 µM | > 100 µM | > 100 µM | > 100 µM | 54 µM |  |  |  |  |  |  |  |  |  |
| Fc1ccc(C2CC(c3cccc(Nc4ccncc4)c3)=NN2c2ccccc2)cc1 (stereo not given) | 6.92 µM | 6.86 µM | 3.07 µM |  | 5.81 µM | 3.07 µM | 3.35 µM | 4.31 µM | 5.71 µM | 3.4 µM | 446 nM | 1990 nM | 1630 nM | 1610 nM | 1750 nM | 1760 nM | 2090 nM | 2420 nM | 2470 nM |
